Among the data in the NIST ThermoML archive (doi:10.1021/acs.jced.8b00487) are mass density values, retold here.

“And” between values parts separate entries of the source, which are not always exact repeats. Equal entries are not always repeated. ± gives the expanded uncertainty stated by the source.

The nature of the data set: xn = mol fraction of the nth substance listed. Conditions: 298.15 K, 101 kPa, Liquid, Vibrating tube method.

What is called mass density is mass per unit of volume.

Regarding `CCCCC(CC)COP(=O)(O)OCC(CC)CCCC` (centres undefined) [bis(2-ethylhexyl) hydrogen phosphate] + CCCCC(CC)COP(=O)([O-])OCC(CC)CCCC.CCCCC(CC)COP(=O)([O-])OCC(CC)CCCC.CCCCC(CC)COP(=O)([O-])OCC(CC)CCCC.[Dy+3], the mass density (x2 = 0) stood at 971 ± 2 kg/m3.
The same measure, in the same setting: the value for `CCCCC(CC)COP(=O)(O)OCC(CC)CCCC` (centres undefined) [bis(2-ethylhexyl) hydrogen phosphate] + CCCCC(CC)COP(=O)([O-])OCC(CC)CCCC.CCCCC(CC)COP(=O)([O-])OCC(CC)CCCC.CCCCC(CC)COP(=O)([O-])OCC(CC)CCCC.[Eu+3] was 970.5 ± 2 kg/m3; that for `CCCCC(CC)COP(=O)(O)OCC(CC)CCCC` (centres undefined) [bis(2-ethylhexyl) hydrogen phosphate] + CCCCC(CC)COP(=O)([O-])OCC(CC)CCCC.CCCCC(CC)COP(=O)([O-])OCC(CC)CCCC.CCCCC(CC)COP(=O)([O-])OCC(CC)CCCC.[Gd+3] was 970.5 ± 2 kg/m3.
On the same count and under the same terms, as for `CCCCC(CC)COP(=O)(O)OCC(CC)CCCC` (centres undefined) [bis(2-ethylhexyl) hydrogen phosphate] + CCCCC(CC)COP(=O)([O-])OCC(CC)CCCC.CCCCC(CC)COP(=O)([O-])OCC(CC)CCCC.CCCCC(CC)COP(=O)([O-])OCC(CC)CCCC.[Nd+3], the figure is 971 ± 2 kg/m3 and 969.1 ± 2 kg/m3 and 970.5 ± 2 kg/m3; as for `CCCCC(CC)COP(=O)(O)OCC(CC)CCCC` (centres undefined) [bis(2-ethylhexyl) hydrogen phosphate] + CCCCC(CC)COP(=O)([O-])OCC(CC)CCCC.CCCCC(CC)COP(=O)([O-])OCC(CC)CCCC.CCCCC(CC)COP(=O)([O-])OCC(CC)CCCC.[Sm+3], 971 ± 2 kg/m3 and 970.5 ± 2 kg/m3.
As to `CCCCC(CC)COP(=O)(O)OCC(CC)CCCC` (centres undefined) [bis(2-ethylhexyl) hydrogen phosphate] + CCCCC(CC)COP(=O)([O-])OCC(CC)CCCC.CCCCC(CC)COP(=O)([O-])OCC(CC)CCCC.CCCCC(CC)COP(=O)([O-])OCC(CC)CCCC.[Tb+3], the mass density (x2 = 0) is given as 970.5 ± 2 kg/m3.
As for `CCCCC(CC)COP(=O)(O)OCC(CC)CCCC` (centres undefined) [bis(2-ethylhexyl) hydrogen phosphate] + Cc1ccccc1C, the mass density was 946.2 ± 4 kg/m3 and 946.1 ± 4 kg/m3 (x2 = 0.5002); 944.7 ± 4 kg/m3 (x2 = 0.5198); 944.6 ± 4 kg/m3 (x2 = 0.5201); 924.4 ± 4 kg/m3 (x2 = 0.7313); 912.6 ± 4 kg/m3 and 912.4 ± 4 kg/m3 (x2 = 0.8195); 912.5 ± 4 kg/m3 (x2 = 0.8197). For the same compound, the mass density is, setting by setting: (x2 = 0.8203) 912.4 ± 4 kg/m3; (x2 = 0.8204) 912.2 ± 4 kg/m3; (x2 = 0.9275) 893.2 ± 4 kg/m3 and 892.9 ± 4 kg/m3; (x2 = 0.9406) 890.1 ± 4 kg/m3 and 890.3 ± 4 kg/m3 and 890 ± 4 kg/m3; (x2 = 0.9759) 882 ± 4 kg/m3; (x2 = 0.976) 882 ± 4 kg/m3 and 881.9 ± 4 kg/m3 and 881.8 ± 4 kg/m3.
Take `CCCCC(CC)COP(=O)([O-])OCC(CC)CCCC.CCCCC(CC)COP(=O)([O-])OCC(CC)CCCC.CCCCC(CC)COP(=O)([O-])OCC(CC)CCCC.[Dy+3]` (centres undefined) [dysprosium(III) bis(2-ethylhexyl) phosphate] + CCCCC(CC)COP(=O)(O)OCC(CC)CCCC: the mass density stood at 973.1 ± 2 kg/m3 (x1 = 0.0039); 975.7 ± 2 kg/m3 (x1 = 0.00883); 981.6 ± 2 kg/m3 (x1 = 0.02055); 988.7 ± 2 kg/m3 (x1 = 0.03494); 995.1 ± 2 kg/m3 (x1 = 0.04879).
In the case of `CCCCC(CC)COP(=O)([O-])OCC(CC)CCCC.CCCCC(CC)COP(=O)([O-])OCC(CC)CCCC.CCCCC(CC)COP(=O)([O-])OCC(CC)CCCC.[Eu+3]` (centres undefined) [europium(III) bis(2-ethylhexyl) phosphate] + CCCCC(CC)COP(=O)(O)OCC(CC)CCCC, the mass density worked out at 977.5 ± 2 kg/m3 (x1 = 0.01457); 985.6 ± 2 kg/m3 (x1 = 0.03221); 989.9 ± 2 kg/m3 (x1 = 0.04158); 995.6 ± 2 kg/m3 (x1 = 0.05518); 1001.7 ± 2 kg/m3 (x1 = 0.07111).
As to `CCCCC(CC)COP(=O)([O-])OCC(CC)CCCC.CCCCC(CC)COP(=O)([O-])OCC(CC)CCCC.CCCCC(CC)COP(=O)([O-])OCC(CC)CCCC.[Gd+3]` (centres undefined) [gadolinium(III) bis(2-ethylhexyl) phosphate] + CCCCC(CC)COP(=O)(O)OCC(CC)CCCC, the mass density (x1 = 0.01568) worked out at 978.4 ± 2 kg/m3, the mass density (x1 = 0.0349) turned out to be 987.4 ± 2 kg/m3, the mass density (x1 = 0.04335) was 991.2 ± 2 kg/m3 and the mass density (x1 = 0.05925) is 997.8 ± 2 kg/m3.
`CCCCC(CC)COP(=O)([O-])OCC(CC)CCCC.CCCCC(CC)COP(=O)([O-])OCC(CC)CCCC.CCCCC(CC)COP(=O)([O-])OCC(CC)CCCC.[Nd+3]` (centres undefined) [neodymium(III) bis(2-ethylhexyl) phosphate] + CCCCC(CC)COP(=O)(O)OCC(CC)CCCC: the mass density is, setting by setting: (x1 = 0.01187) 976.8 ± 2 kg/m3; (x1 = 0.01364) 975.7 ± 2 kg/m3; (x1 = 0.01427) 977.3 ± 2.1 kg/m3; (x1 = 0.02626) 981.7 ± 2.5 kg/m3; (x1 = 0.02653) 983.6 ± 2.5 kg/m3; (x1 = 0.02822) 983.8 ± 2 kg/m3. Further, the mass density (x1 = 0.03921) is reported as 988.6 ± 2 kg/m3; the mass density (x1 = 0.0402) came out at 987.6 ± 2 kg/m3; the mass density (x1 = 0.04214) is 990.4 ± 2 kg/m3; the mass density (x1 = 0.04446) was 991 ± 2 kg/m3; the mass density (x1 = 0.04708) is 992.1 ± 2 kg/m3; the mass density (x1 = 0.04955) worked out at 991.6 ± 2 kg/m3. Also, the mass density is, setting by setting: (x1 = 0.05317) 994.9 ± 2 kg/m3; (x1 = 0.0729) 1002.3 ± 2 kg/m3; (x1 = 0.07322) 1002.5 ± 2 kg/m3; (x1 = 0.07707) 1002.6 ± 2 kg/m3; (x1 = 0.0837) 1006.6 ± 2 kg/m3.
As to `CCCCC(CC)COP(=O)([O-])OCC(CC)CCCC.CCCCC(CC)COP(=O)([O-])OCC(CC)CCCC.CCCCC(CC)COP(=O)([O-])OCC(CC)CCCC.[Sm+3]` (centres undefined) [samarium(III) bis(2-ethylhexyl) phosphate] + CCCCC(CC)COP(=O)(O)OCC(CC)CCCC, the mass density reads like this: (x1 = 0.00583) 974 ± 2 kg/m3; (x1 = 0.01288) 976.9 ± 2 kg/m3; (x1 = 0.01616) 978.9 ± 2 kg/m3; (x1 = 0.02646) 983.1 ± 2 kg/m3; (x1 = 0.03185) 986.2 ± 2 kg/m3; (x1 = 0.03372) 986.4 ± 2 kg/m3. Besides, the mass density was found to be 993.9 ± 2 kg/m3 (x1 = 0.05017), 997.2 ± 2 kg/m3 (x1 = 0.05958), 998.2 ± 2 kg/m3 (x1 = 0.06022) and 1001.8 ± 2 kg/m3 (x1 = 0.07053).
